Tests used:
Test in all cases: relative viability (nuclei count vs DMSO), 5 days (fraction); higher = more cells survive
[1] = compound: O=C(C[C@H]1NCCC[C@@H]1O)Cn1cnc2cc(Br)c(Cl)cc2c1=O (racemic) [Halofuginone] + CCNC(=O)c1noc(-c2cc(C(C)C)c(O)cc2O)c1-c1ccc(CN2CCOCC2)cc1 [Luminespib] (partner 0.01 µM)
Method in brief: (§1)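 Values are medians from duplicate plates. Each reflects relative viability, defined as the nuclei count of treated wells over that of vehicle wells. Lung cancer cell lines in 1536-well plates were pin-tool dosed one day after seeding with one drug alone or with a fixed anchor-drug dose plus five library-drug doses (not always all listed) in √10 steps, then fixed, stained and imaged at 4× after 5 days.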

Cediranib + Lapatinib = compound: COc1cc2c(Oc3ccc4[nH]c(C)cc4c3F)ncnc2cc1OCCCN1CCCC1 [Cediranib] + CS(=O)(=O)CCNCc1ccc(-c2ccc3ncnc(Nc4ccc(OCc5cccc(F)c5)c(Cl)c4)c3c2)o1 [Lapatinib] (partner 2 µM)
Method in brief: as §1

Cediranib + AZD7762 = compound: COc1cc2c(Oc3ccc4[nH]c(C)cc4c3F)ncnc2cc1OCCCN1CCCC1 [Cediranib] + NC(=O)Nc1cc(-c2cccc(F)c2)sc1C(=O)N[C@H]1CCCNC1 [AZD7762] (partner 0.2 µM)
Method in brief: as §1

Decitabine + Navitoclax = compound: Nc1ncn([C@H]2C[C@H](O)[C@@H](CO)O2)c(=O)n1 [Decitabine] + CC1(C)CCC(c2ccc(Cl)cc2)=C(CN2CCN(c3ccc(C(=O)NS(=O)(=O)c4ccc(N[C@H](CCN5CCOCC5)CSc5ccccc5)c(S(=O)(=O)C(F)(F)F)c4)cc3)CC2)C1 [Navitoclax] (partner 0.5 µM)
Method in brief: as §1

Cell Line: NCI-H1563
- relative viability ([1]; first compound 0.001 µM): 0.487
- relative viability ([1]; first compound 0.003162 µM): 0.493
- relative viability ([1]; first compound 0.01 µM): 0.547
- relative viability ([1]; first compound 0.03162 µM): 0.534
- relative viability ([1]; first compound 0.1 µM): 0.467
- relative viability (Cediranib + Lapatinib; first compound 0.04 µM): 0.89
- relative viability (Cediranib + Lapatinib; first compound 0.1265 µM): 0.66
- relative viability (Cediranib + Lapatinib; first compound 0.4 µM): 0.935
- relative viability (Cediranib + Lapatinib; first compound 1.265 µM): 0.822
- relative viability (Cediranib + Lapatinib; first compound 4 µM): 0.78

Cell Line: NCI-H1623
- relative viability ([1]; first compound 0.001 µM): 0.622
- relative viability ([1]; first compound 0.003162 µM): 0.465
- relative viability ([1]; first compound 0.01 µM): 0.461
- relative viability ([1]; first compound 0.03162 µM): 0.622
- relative viability ([1]; first compound 0.1 µM): 0.485

Cell Line: NCI-H1648
- relative viability (Cediranib + AZD7762; first compound 0.04 µM): 0.586
- relative viability (Cediranib + AZD7762; first compound 0.1265 µM): 0.533
- relative viability (Cediranib + AZD7762; first compound 0.4 µM): 0.636
- relative viability (Cediranib + AZD7762; first compound 1.265 µM): 0.514
- relative viability (Cediranib + AZD7762; first compound 4 µM): 0.72

Cell Line: NCI-H1650
- relative viability ([1]; first compound 0.001 µM): 0.188
- relative viability ([1]; first compound 0.003162 µM): 0.217
- relative viability ([1]; first compound 0.01 µM): 0.193
- relative viability ([1]; first compound 0.03162 µM): 0.204
- relative viability ([1]; first compound 0.1 µM): 0.235
- relative viability (Decitabine + Navitoclax; first compound 0.04 µM): 0.546
- relative viability (Decitabine + Navitoclax; first compound 0.1265 µM): 0.482
- relative viability (Decitabine + Navitoclax; first compound 0.4 µM): 0.434
- relative viability (Decitabine + Navitoclax; first compound 1.265 µM): 0.329
- relative viability (Decitabine + Navitoclax; first compound 4 µM): 0.295
- relative viability (Cediranib + Lapatinib; first compound 0.04 µM): 0.955
- relative viability (Cediranib + Lapatinib; first compound 0.1265 µM): 0.183
- relative viability (Cediranib + Lapatinib; first compound 0.4 µM): 0.802
- relative viability (Cediranib + Lapatinib; first compound 1.265 µM): 0.776
- relative viability (Cediranib + Lapatinib; first compound 4 µM): 0.665

Cell Line: NCI-H1703
- relative viability (Decitabine + Navitoclax; first compound 0.04 µM): 0.845
- relative viability (Decitabine + Navitoclax; first compound 0.1265 µM): 0.642
- relative viability (Decitabine + Navitoclax; first compound 0.4 µM): 0.255
- relative viability (Decitabine + Navitoclax; first compound 1.265 µM): 0.189
- relative viability (Decitabine + Navitoclax; first compound 4 µM): 0.253
- relative viability (Cediranib + Lapatinib; first compound 0.04 µM): 1.36
- relative viability (Cediranib + Lapatinib; first compound 0.1265 µM): 1.07
- relative viability (Cediranib + Lapatinib; first compound 0.4 µM): 0.361
- relative viability (Cediranib + Lapatinib; first compound 1.265 µM): 0.354
- relative viability (Cediranib + Lapatinib; first compound 4 µM): 0.341
- relative viability (Cediranib + AZD7762; first compound 0.04 µM): 0.116
- relative viability (Cediranib + AZD7762; first compound 0.4 µM): 0.135
- relative viability (Cediranib + AZD7762; first compound 1.265 µM): 0.122
- relative viability (Cediranib + AZD7762; first compound 4 µM): 0.123

Cell Line: NCI-H2009
- relative viability ([1]; first compound 0.001 µM): 1.07
- relative viability ([1]; first compound 0.003162 µM): 1.04
- relative viability ([1]; first compound 0.01 µM): 1.03
- relative viability ([1]; first compound 0.03162 µM): 0.904
- relative viability ([1]; first compound 0.1 µM): 0.692
- relative viability (Decitabine + Navitoclax; first compound 0.04 µM): 0.945
- relative viability (Decitabine + Navitoclax; first compound 0.1265 µM): 0.722
- relative viability (Decitabine + Navitoclax; first compound 0.4 µM): 0.568
- relative viability (Decitabine + Navitoclax; first compound 1.265 µM): 0.416
- relative viability (Decitabine + Navitoclax; first compound 4 µM): 0.263
- relative viability (Cediranib + Lapatinib; first compound 0.04 µM): 0.882
- relative viability (Cediranib + Lapatinib; first compound 0.1265 µM): 0.239
- relative viability (Cediranib + Lapatinib; first compound 0.4 µM): 0.94
- relative viability (Cediranib + Lapatinib; first compound 1.265 µM): 0.899
- relative viability (Cediranib + Lapatinib; first compound 4 µM): 1.15

Cell Line: NCI-H2023
- relative viability ([1]; first compound 0.001 µM): 0.849
- relative viability ([1]; first compound 0.003162 µM): 0.699
- relative viability ([1]; first compound 0.01 µM): 0.529
- relative viability ([1]; first compound 0.03162 µM): 0.148
- relative viability ([1]; first compound 0.1 µM): 0.0557
- relative viability (Decitabine + Navitoclax; first compound 0.04 µM): 0.609
- relative viability (Decitabine + Navitoclax; first compound 0.1265 µM): 0.517
- relative viability (Decitabine + Navitoclax; first compound 0.4 µM): 0.379
- relative viability (Decitabine + Navitoclax; first compound 1.265 µM): 0.259
- relative viability (Decitabine + Navitoclax; first compound 4 µM): 0.198
- relative viability (Cediranib + Lapatinib; first compound 0.04 µM): 0.852
- relative viability (Cediranib + Lapatinib; first compound 0.1265 µM): 0.0771
- relative viability (Cediranib + Lapatinib; first compound 0.4 µM): 0.716
- relative viability (Cediranib + Lapatinib; first compound 1.265 µM): 0.654
- relative viability (Cediranib + Lapatinib; first compound 4 µM): 0.878

Cell Line: NCI-H2228
- relative viability ([1]; first compound 0.001 µM): 0.136
- relative viability ([1]; first compound 0.003162 µM): 0.139
- relative viability ([1]; first compound 0.01 µM): 0.12
- relative viability ([1]; first compound 0.03162 µM): 0.118
- relative viability ([1]; first compound 0.1 µM): 0.126
- relative viability (Decitabine + Navitoclax; first compound 0.04 µM): 0.667
- relative viability (Decitabine + Navitoclax; first compound 0.1265 µM): 0.525
- relative viability (Decitabine + Navitoclax; first compound 0.4 µM): 0.264
- relative viability (Decitabine + Navitoclax; first compound 1.265 µM): 0.337
- relative viability (Decitabine + Navitoclax; first compound 4 µM): 0.21
- relative viability (Cediranib + Lapatinib; first compound 0.04 µM): 1.06
- relative viability (Cediranib + Lapatinib; first compound 0.1265 µM): 1.07
- relative viability (Cediranib + Lapatinib; first compound 0.4 µM): 0.928
- relative viability (Cediranib + Lapatinib; first compound 1.265 µM): 1.18
- relative viability (Cediranib + Lapatinib; first compound 4 µM): 1.17

Cell Line: NCI-H2342
- relative viability ([1]; first compound 0.001 µM): 0.817
- relative viability ([1]; first compound 0.003162 µM): 0.719
- relative viability ([1]; first compound 0.01 µM): 0.699
- relative viability ([1]; first compound 0.03162 µM): 0.731
- relative viability ([1]; first compound 0.1 µM): 0.64
- relative viability (Cediranib + AZD7762; first compound 0.04 µM): 0.502
- relative viability (Cediranib + AZD7762; first compound 0.1265 µM): 0.635
- relative viability (Cediranib + AZD7762; first compound 0.4 µM): 0.421
- relative viability (Cediranib + AZD7762; first compound 1.265 µM): 0.402
- relative viability (Cediranib + AZD7762; first compound 4 µM): 0.464

Cell Line: SK-LU-1
- relative viability ([1]; first compound 0.001 µM): 0.202
- relative viability ([1]; first compound 0.003162 µM): 0.196
- relative viability ([1]; first compound 0.01 µM): 0.23
- relative viability ([1]; first compound 0.03162 µM): 0.219
- relative viability ([1]; first compound 0.1 µM): 0.174
- relative viability (Decitabine + Navitoclax; first compound 0.04 µM): 0.262
- relative viability (Decitabine + Navitoclax; first compound 0.1265 µM): 0.385
- relative viability (Decitabine + Navitoclax; first compound 0.4 µM): 0.23
- relative viability (Decitabine + Navitoclax; first compound 1.265 µM): 0.335
- relative viability (Decitabine + Navitoclax; first compound 4 µM): 0.282
- relative viability (Cediranib + Lapatinib; first compound 0.04 µM): 1
- relative viability (Cediranib + Lapatinib; first compound 0.1265 µM): 0.743
- relative viability (Cediranib + Lapatinib; first compound 0.4 µM): 0.851
- relative viability (Cediranib + Lapatinib; first compound 1.265 µM): 0.836
- relative viability (Cediranib + Lapatinib; first compound 4 µM): 1.07

Cell Line: SK-MES-1
- relative viability ([1]; first compound 0.001 µM): 0.842
- relative viability ([1]; first compound 0.003162 µM): 0.704
- relative viability ([1]; first compound 0.01 µM): 0.756
- relative viability ([1]; first compound 0.03162 µM): 0.284
- relative viability ([1]; first compound 0.1 µM): 0.164
- relative viability (Decitabine + Navitoclax; first compound 0.04 µM): 0.976
- relative viability (Decitabine + Navitoclax; first compound 0.1265 µM): 0.84
- relative viability (Decitabine + Navitoclax; first compound 0.4 µM): 0.501
- relative viability (Decitabine + Navitoclax; first compound 1.265 µM): 0.33
- relative viability (Decitabine + Navitoclax; first compound 4 µM): 0.303
- relative viability (Cediranib + Lapatinib; first compound 0.04 µM): 0.471
- relative viability (Cediranib + Lapatinib; first compound 0.1265 µM): 0.502
- relative viability (Cediranib + Lapatinib; first compound 0.4 µM): 0.441
- relative viability (Cediranib + Lapatinib; first compound 1.265 µM): 0.514
- relative viability (Cediranib + Lapatinib; first compound 4 µM): 0.473

Cell Line: SW 900
- relative viability ([1]; first compound 0.001 µM): 0.205
- relative viability ([1]; first compound 0.003162 µM): 0.187
- relative viability ([1]; first compound 0.01 µM): 0.144
- relative viability ([1]; first compound 0.03162 µM): 0.181
- relative viability ([1]; first compound 0.1 µM): 0.154
- relative viability (Cediranib + AZD7762; first compound 0.04 µM): 0.839
- relative viability (Cediranib + AZD7762; first compound 0.1265 µM): 0.536
- relative viability (Cediranib + AZD7762; first compound 0.4 µM): 0.594
- relative viability (Cediranib + AZD7762; first compound 1.265 µM): 0.621
- relative viability (Cediranib + AZD7762; first compound 4 µM): 0.835

Cell Line: SW 1573
- relative viability ([1]; first compound 0.001 µM): 0.507
- relative viability ([1]; first compound 0.003162 µM): 0.152
- relative viability ([1]; first compound 0.01 µM): 0.265
- relative viability ([1]; first compound 0.03162 µM): 0.113
- relative viability ([1]; first compound 0.1 µM): 0.0969
- relative viability (Decitabine + Navitoclax; first compound 0.04 µM): 1.15
- relative viability (Decitabine + Navitoclax; first compound 0.1265 µM): 0.89
- relative viability (Decitabine + Navitoclax; first compound 0.4 µM): 0.687
- relative viability (Decitabine + Navitoclax; first compound 1.265 µM): 0.356
- relative viability (Decitabine + Navitoclax; first compound 4 µM): 0.217
- relative viability (Cediranib + Lapatinib; first compound 0.04 µM): 1.17
- relative viability (Cediranib + Lapatinib; first compound 0.1265 µM): 1.11
- relative viability (Cediranib + Lapatinib; first compound 0.4 µM): 0.959
- relative viability (Cediranib + Lapatinib; first compound 1.265 µM): 1.07
- relative viability (Cediranib + Lapatinib; first compound 4 µM): 1.3

Reference: the supplement of paper PMC10307832
